Values of other authors, collected in patent US20020122815A1, “Compositions and methods of carbohydrate dosing” (priority 2001, published 2002).

What was measured:
serum glucose levels [1] = conditions: compared with glucose or sucrose
[2] = in large amounts
serum glucose levels [3] = conditions: serum glucose response to 50 g carbohydrate as percentage of standard meal (usually 50 g glucose)

Row | SMILES | rise in serum glucose (serum glucose levels [1]) | adverse effect [2] | Glycemic Index (serum glucose levels [3])
1 | OC[C@@H](O)[C@@H](O)[C@H](O)[C@@H](O)CO [sorbitol] | less of a rise in serum glucose than glucose or sucrose | may cause diarrhea | –
2 | O=C(CO)[C@@H](O)[C@H](O)[C@H](O)CO [fructose] | – | – | 23
3 | OC[C@@H](O)[C@@H](O)[C@H](O)[C@H](O)CO [Mannitol] | less of a rise in serum glucose than glucose or sucrose | may cause diarrhea | –
4 | OC[C@H]1O[C@@](CO)(O[C@H]2O[C@H](CO)[C@@H](O)[C@H](O)[C@H]2O)[C@@H](O)[C@@H]1O [sucrose] | – | – | 60-65
